According to US20070021360A1, “Compositions, formulations and kit with anti-sense oligonucleotide and anti-inflammatory steroid and/or obiquinone for treatment of respiratory and lung disesase” (priority 2001, published 2007):

Assays:
adenosine A1 receptor = test: Adenosine-induced bronchoconstriction (PC50 Adenosine) in allergic rabbits; type: in vivo
Method: A fortuitous hoology between the rabbit and human DNA sequences within the adenosine A1 gene overlapping the initiation codon permitted the use of the phosphorothioate anti-sense oligonucleotides initially designed for use against the human adenosine A1 receptor in a rabbit model. Neonatal New Zealand white Pasteurella-free rabbits were immunized intraperitoneally within 24 hours of birth with 312 antigen units/ml house dust mite (D. farinae) extract (Berkeley Biologicals, Berkeley, Calif.), mixed with 10% kaolin. Immunizations were repeated weekly for the first month and then biweekly for the next 2 months. At 3-4 months of age, eight sensitized rabbits were anesthetized and relaxed with a mixture of ketamine hydrochloride (44 mg/kg) and acepromazine maleate (0.4 mg/kg) administered intramuscularly. The rabbits were then laid supine in a comfortable position on a small molded, padded animal board and intubated with a 4.0-mm intratracheal tube (Mallinkrodt, Inc., Glens Falls, N.Y.). A polyethylene catheter of external diameter 2.4 mm with an attached latex balloon was passed into the esophagus and maintained at the same distance (approximately 16 cm) from the mouth throughout the experiments. The intratracheal tube was attached to a heated Fleisch pneumotachograph (size 00; DOM Medical, Richmond, Va.), and flow was measured using a Validyne differential pressure transducer (Model DP-45161927; Validyne Engineering Corp., Northridge, Calif.) driven by a Gould carrier amplifier (Model 11-4113; Gould Electronic, Cleveland, Ohio). The esophageal balloon was attached to one side of the differential pressure transducer, and the outflow of the intratracheal tube was connected to the opposite side of the pressure transducer to allow recording of transpulmonary pressure. Flow was integrated to give a continuous tidal volume, and measurements of total lung resistance (RL) and dynamic compliance (Cdyn) were calculated at isovolumetric and flow zero points, respectively, using an automated respiratory analyzer (Model 6; Buxco, Sharon, Conn.). Animals were randomized and on Day 1 pretreatment values for PC50 were obtained for aerosolized adenosine. Anti-sense (HAdA1AS) or mismatched control (HAdA1MM) oligonucleotides were dissolved in sterile physiological saline at a concentration of 5000 μg (5 mg) per 1.0 ml. […] Aerosols of either saline, adenosine, or anti-sense or mismatch oligonucleotides were generated by an ultrasonic nebulizer (DeVilbiss, Somerset, Pa.), producing aerosol droplets 80% of which were smaller than 5:m in diameter. In the first arm of the experiment, four randomly selected allergic rabbits were administered anti-sense oligonucleotide and four the mismatched control oligonucleotide. On the morning of the third day, PC50 values (the concentration of aerosolized adenosine in mg/ml required to reduce the dynamic compliance of the bronchial airway 50% from the baseline value) were obtained and compared to PC50 values obtained for these animals prior to exposure to oligonucleotide. Following a 1 week interval, animals were crossed over, with those previously administered mismatch control oligonucleotide now administered anti-sense oligonucleotide, and those previously treated with anti-sense oligonucleotide now administered mismatch control oligonucleotide. Treatment methods and measurements were identical to those employed in the first arm of the experiment. […] For the purpose of calculation, PC50 values for these animals were set at 20 mg/ml. The values given therefore represent a minimum figure for anti-sense effectiveness. Actual effectiveness was higher.
Aerosols of either adenosine (0-20 mglnml), or anti-sense or one of two mismatch oligonucleotides (5 mg/ml) were separately prepared with an ultrasonic nebulizer (Model 646, DeVilbiss, Somerset, Pa.), which produced aerosol droplets, 80% of which were smaller than 5:m in diameter. […]

adenosine A2 receptors = test: Adenosine A2 receptor binding ([3H]CGS-21680) in airway smooth muscle membranes of treated rabbits; parameters: species or system rabbit; settings: airway smooth muscle membranes after cross-over experiment; mean (n = 8) ± SEM
Description: At the conclusion of the cross-over experiment of Example 3 above, airway smooth muscle from all rabbits was quantitatively analyzed for adenosine A1 receptor number. As a control for the specificity of the anti-sense oligonucleotide, adenosine A2 receptors, which should not have been affected, were also quantified. Airway smooth muscle tissue was dissected from each rabbit and a membrane fraction prepared according to the method of Kleinstein et al. (Kleinstein, J. and Glossrnann, H., Naunyn-Schrniedeberg's Arch Pharmacol. 305: 191-200 (1978)), the relevant portion of which is hereby incorporated in its entirety by reference, with slight modifications. Crude plasma membrane preparations were stored at −70 EC until the time of assay. Protein content was determined by the method of Bradford (M. Bradford, Anal. Biochem. 72, 240-254 (1976), the relevant portion of which is hereby incorporated in its entirety by reference). Frozen plasma membranes were thawed at room temperature and were incubated with 0.2 U/ml adenosine deaminase for 30 minutes at 37 EC to remove endogenous adenosine. The binding of [^3H] […] CGS-21680 ([…]) was measured as previously described by Ali et al. (Ali, S. et al., J. Pharmacol. Exp. Ther. 268, Ara. J. Physiol 266, L271-277 (1994), the relevant portion of which is hereby incorporated in its entirety by reference). […]

Question: For “5′-GTAGCAGGCGGGGATGGGGGC-3′ [HAdA1MM1, reference compound]”, which “effect on PC50 Adenosine value” (adenosine A1 receptor; allergic rabbits, cross-over experiment, 20 mg total aerosolized oligo) is on record?
Answer: No effect

Question: And the “PC50 Post Oligonucleotide” value (adenosine A1 receptor; asthmatic rabbits, approx. 5 mg aerosolized oligo twice daily for two days, third day, non-responders set at 20 mg/ml, mean (n = 8) ± SEM)?
Answer: 5.16 ± 1.03 mg/mL

Question: And the “PC50 Pre Oligonucleotide” value (adenosine A1 receptor; asthmatic rabbits, baseline before oligonucleotide, aerosolized adenosine reducing dynamic compliance 50%, mean (n = 8) ± SEM)?
Answer: 3.56 ± 1.02 mg/mL

Question: What about the toxicity (adenosine A1 receptor; rabbits receiving inhaled oligonucleotide) of the same substance?
Answer: No toxicity was observed

Question: And the “A2-Specific Binding” value (adenosine A2 receptors)?
Answer: 302 ± 22
